Results published in patent publication US20220008401A1, “COMPOSITIONS AND METHODS FOR TREATING PULMONARY DISEASE WITH MATRIX METALLOPROTEINASE INHIBITORS” (DARSHA LLC, priority 2019, published 2022).

Columns and labels:
neutrophils = assay: BrdU pulse-chase labeling of newly synthesized neutrophils in BALF of LPS-exposed mice; type: in vivo; conditions: LPS treated mice, n=3 (49.3±0.87% without treatment)
Experimental: To examine the hypothesis that reduced neutrophil counts in response to Compound 1 treatment resulted from decreased cell migration from the pulmonary circulation, pulse-chase labeling of newly synthesized neutrophils in LPS exposed animals was performed. LPS or saline was nasally instilled into mice which were then allowed to recover for 24 hours. Following this, an intraperitoneal injection (IP injections) of bromodeoxyuridine (BrdU) was administered and animals were allowed to rest for 2.5 hours. A 2.5-hour rest period was selected since it was previously determined that BrdU labeled neutrophils take about 3 hours to reach and infiltrate the lungs. At 2.5 hours animals received inhaled Compound 1 or PBS and were sacrificed at either 15- or 45 minutes post-treatment. Cytospin slides were generated from BALF and immunofluorescently stained for BrdU and MPO to identify neutrophils. Confocal images were taken of cytospins stained for BrdU and MPO (myeloperoxidase). The number of BrdU (+) and BrdU (−) neutrophils was quantified.

[1] = Presence of aerosolized Compound 1 in lung of LPS-injured mice; type: in vivo, C57BL/6J mice; conditions: single aerosolized dose 35 mg/kg, one hour following nebulization
Experimental: MMP 9 was selected as a target as it is a well-established mediator of inflammation in lung injury. 12-week-old male C57BL/6J mice were intranasally instilled with LPS (1.5 mg/kg of 1 mg/ml solution in sterile PBS). 24 hours later, these mice received a single dose of aerosolized MMP inhibitor (Compound 1, dissolved in PBS, 35 mg/kg) or PBS alone. One hour following nebulization, the mice were sacrificed and assessed for MMP activity in both the bronchoalveolar lavage fluid (BALF) and lung tissue homogenate obtained from treated mice. One hour following nebulization of Compound 1, the presence of the aerosolized Compound 1 in the lung was confirmed at concentrations >100 ng/g of tissue. MMP activity in BALF was determined using a commercially available MMP 9 Quantikine assay from R&D systems.

[2] = Lung homogenate levels after nebulized Compound 1, Example 5 (mass spectroscopy); type: in vivo, C57/BL6 mice; conditions: for Compound 1 levels in the lung: nebulized, dose groups pooled, lung homogenate, n=6
Experimental: In this test, C57/BL6 mice were divided into three treatment groups, where they received nebulized Compound 1 at high dose (10 mg/kg), medium dose (5 mg/kg) and, low dose (2 mg/kg). Animals were sacrificed at 1, 3 and, 5 hours (n=3 mice per time point) followed by collection of lung homogenates. Homogenates were analyzed by mass spectroscopy to determine Compound 1 levels in the lung.

caspase 3/7 = assay: Caspase 3/7 activity assay on lung homogenate of LPS-injured mice; type: in vivo; conditions: LPS-CGS group, four inhaled doses q6h starting 24 hours after LPS, n≥4 (LPS-PBS 0.81±1.15)
Experimental: (§1) It was also examined if Compound 1 would reduce the levels of apoptosis associated with injury by LPS. Because the time line of apoptosis takes hours, an additional set of mice were injured with LPS (1.5 mg/kg of 1 mg/ml solution in sterile PBS) followed by initiation of treatment with Compound 1 twenty four hours later. The mice received four doses of Compound 1 (one dose every six hours over a total duration of 24 hours in accordance with the treatment schedule described below with reference to FIG. 8B). The mice were sacrificed and their lungs were harvested and assessed for caspase 3 activity by western blot for cleaved caspase 3 and a caspase 3/7 activity assay obtained from ThermoFisher.
FIG. 5B is the relative densitometric quantification of western blots for cleaved caspase 3: whole caspase ratio. […] FIG. 5C depicts the results of the caspase 3/7 activity assay performed on mouse lung homogenate. […] The increase in caspase 3/7 activity was attenuated by inhaled treatment with Compound 1. FIG. 5D depicts 20× images (570A, 570B, and 570C) of representative sections of lung tissue fluorescently stained for cleaved caspase-3 (red) and cell nuclei (blue) in a control lung tissue (570A), a lung tissue of a mouse treated with LPS only (570B), and lung tissue of a mouse treated with LPS and Compound 1 (570C) (n=3).

LPS injured mice = assay: Lung injury (inflammation) score of H&E lung sections, LPS-injured mice, single inhaled dose; type: in vivo, C57BL/6J mice; conditions: LPS 1.5 mg/kg intranasal; 24 hours later single aerosolized dose 35 mg/kg; sacrifice one hour after; vs LPS alone p<0.001
Experimental: We next determined if inhaled Compound 1 attenuated specific features of acute inflammatory lung injury that were also observed in response to LPS. Again, 12-week-old male C57BL/6J mice were intranasally instilled with LPS (1.5 mg/kg of 1 mg/ml solution in sterile PBS). 24 hours later, these mice received a single dose of aerosolized MMP inhibitor (Compound 1, dissolved in PBS, 35 mg/kg) or PBS alone and a tail vein injection of FITC labeled albumin (FITC-albumin). One hour following nebulization, the mice were sacrificed. The left lung was fixed in formalin from each animal, paraffin embedded, sectioned and stained with H&E to examine histological features indicative of lung injury. These were achieved by visually scoring each slide based on a lung injury scoring system developed by the American Thoracic Society for animal models of inflammatory lung injury.

MMP 9 = MMP 9 (Mus musculus, UniProt P41245); assay: MMP-9 Quantikine assay on lung homogenates of LPS-injured mice; type: in vivo; design: One-hour post-Compound 1 treatment lung homogenates were collected and analyzed; from tissue; host or cells: lung tissue homogenate of LPS-injured mice
Experimental: Inhibition of MMP-9 by inhaled Compound 1 treatment was assessed using a Quantikine Assay (R&D systems). Mice were injured by nasal instillation of LPS followed by treatment with inhaled PBS or Compound 1 (5 mg/mL). One-hour post-Compound 1 treatment lung homogenates were collected and analyzed.

caspase 3 = assay: Western blot for cleaved caspase 3 in lung homogenates of LPS-injured mice; type: in vivo
Experimental: as §1
FIG. 5A is a representative western blot of lung homogenates that were equalized for protein content (i.e., normalized to actin) and probed for whole and cleaved caspase 3. Each lane represents a lung homogenate sample (40 μg) from an individual mouse. Lane 510 depicts a lung homogenate sample from a control mouse that was not administered LPS or Compound 1. Lanes 520 and 530 depict lung homogenate samples from two mice that were administered LPS but were not treated with Compound 1. […]
FIG. 5B is the relative densitometric quantification of western blots for cleaved caspase 3: whole caspase ratio. […]

Chain of MMP 9 (P41245 108-730): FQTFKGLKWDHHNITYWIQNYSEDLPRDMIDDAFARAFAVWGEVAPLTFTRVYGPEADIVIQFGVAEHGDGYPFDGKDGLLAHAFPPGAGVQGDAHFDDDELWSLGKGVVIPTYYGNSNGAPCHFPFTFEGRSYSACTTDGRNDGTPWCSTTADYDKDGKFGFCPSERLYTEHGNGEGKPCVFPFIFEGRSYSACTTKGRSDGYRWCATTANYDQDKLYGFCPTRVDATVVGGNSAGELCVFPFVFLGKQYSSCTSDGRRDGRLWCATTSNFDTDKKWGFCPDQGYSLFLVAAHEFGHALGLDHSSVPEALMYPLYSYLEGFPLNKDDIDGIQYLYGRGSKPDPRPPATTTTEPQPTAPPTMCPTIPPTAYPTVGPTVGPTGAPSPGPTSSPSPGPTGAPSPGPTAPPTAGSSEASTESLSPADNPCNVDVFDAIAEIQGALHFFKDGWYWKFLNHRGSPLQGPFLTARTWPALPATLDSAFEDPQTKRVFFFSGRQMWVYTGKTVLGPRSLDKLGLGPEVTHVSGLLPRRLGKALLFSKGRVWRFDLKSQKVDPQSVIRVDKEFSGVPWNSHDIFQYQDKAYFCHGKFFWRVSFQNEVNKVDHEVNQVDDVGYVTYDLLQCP

butanamide, N-hydroxy-2-[[(4-hydroxyphenyl)sulfonyl](3-pyridinylmethyl)amino]-3-methyl, hydrochloride, (2R) [Compound 1]
percentage of BrdU (+) neutrophils (neutrophils; 15 minutes post inhaled treatment): 16.7±3.6%
percentage of BrdU (+) neutrophils (neutrophils; 45 minutes post inhaled treatment): 22.7±2.5%
concentration of aerosolized Compound 1 in the lung [1]: > 100 ng/g of tissue
Compound 1 levels in the lung ([2]; 1 h post-inhalation): 310.7 ± 85.38 ng/g
Compound 1 levels in the lung ([2]; 3 h post-inhalation): 49.03 ± 15.54 ng/g
Compound 1 levels in the lung ([2]; 5 h post-inhalation): 24.48 ± 9.96 ng/g
effect of dose size on Compound 1 concentration in lung ([2]; high (10 mg/kg), medium (5 mg/kg), low (2 mg/kg) nebulized dose, 1, 3, 5 hours): no significant effect
caspase 3/7 activity (caspase 3/7): 0.05 ± 0.16 µM
lung injury score (Inflammation Score) (LPS injured mice): reduces the lung injury score
MMP-9 activity (Quantikine) (MMP 9; LPS nasal instillation then inhaled Compound 1 (5 mg/mL), lung homogenates one hour post-treatment, n=6 (LPS 9260±1173, PBS 2388±370)): 3614±442.1 RFU
MMP-9 levels in whole lung homogenate (MMP 9; LPS-injured, Compound 1 treated animals): decreased significantly
caspase 3 activation (cleaved caspase-3, western blot) (caspase 3; LPS 1.5 mg/kg, four inhaled doses, one every six hours, starting 24 hours after LPS, lung homogenate): absent or reduced
cleaved:whole caspase 3 ratio (densitometry) (caspase 3; LPS-CGS group, four inhaled doses q6h starting 24 hours after LPS, n≥5 (LPS-PBS 2.57±1.15, PBS-PBS 0.25±0.15)): 0.59±0.18 AU
